From US9611267B2, “Substituted tricyclic compounds as FGFR inhibitors” (Incyte Corporation, priority 2012, dated 2017)

Key:
Format in all cases: biochemical
FGFR1 = FGFR1 (Homo sapiens (Human), UniProt P11362); test: FGFR enzymatic assay (FRET peptide phosphorylation), FGFR1; settings: FGFR1 enzyme 0.02 nM, ATP 210 μM
Outline: (§1)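 Recombinant kinase was pre-incubated 5–10 min with serially diluted inhibitor in HEPES buffer (10 mM MgCl2, 5 mM DTT, pH 7.5; buffer described for FGFR3). Peptide phosphorylation ran 1 h at 25 °C and was detected by FRET after ~1 h equilibration. IC50 values come from variable-slope sigmoidal fits.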

FGFR2 = FGFR2 (Homo sapiens (Human), UniProt P21802); test: FGFR enzymatic assay (FRET peptide phosphorylation), FGFR2; settings: FGFR2 enzyme 0.01 nM, ATP 100 μM
Chain of FGFR2 (P21802 22-821): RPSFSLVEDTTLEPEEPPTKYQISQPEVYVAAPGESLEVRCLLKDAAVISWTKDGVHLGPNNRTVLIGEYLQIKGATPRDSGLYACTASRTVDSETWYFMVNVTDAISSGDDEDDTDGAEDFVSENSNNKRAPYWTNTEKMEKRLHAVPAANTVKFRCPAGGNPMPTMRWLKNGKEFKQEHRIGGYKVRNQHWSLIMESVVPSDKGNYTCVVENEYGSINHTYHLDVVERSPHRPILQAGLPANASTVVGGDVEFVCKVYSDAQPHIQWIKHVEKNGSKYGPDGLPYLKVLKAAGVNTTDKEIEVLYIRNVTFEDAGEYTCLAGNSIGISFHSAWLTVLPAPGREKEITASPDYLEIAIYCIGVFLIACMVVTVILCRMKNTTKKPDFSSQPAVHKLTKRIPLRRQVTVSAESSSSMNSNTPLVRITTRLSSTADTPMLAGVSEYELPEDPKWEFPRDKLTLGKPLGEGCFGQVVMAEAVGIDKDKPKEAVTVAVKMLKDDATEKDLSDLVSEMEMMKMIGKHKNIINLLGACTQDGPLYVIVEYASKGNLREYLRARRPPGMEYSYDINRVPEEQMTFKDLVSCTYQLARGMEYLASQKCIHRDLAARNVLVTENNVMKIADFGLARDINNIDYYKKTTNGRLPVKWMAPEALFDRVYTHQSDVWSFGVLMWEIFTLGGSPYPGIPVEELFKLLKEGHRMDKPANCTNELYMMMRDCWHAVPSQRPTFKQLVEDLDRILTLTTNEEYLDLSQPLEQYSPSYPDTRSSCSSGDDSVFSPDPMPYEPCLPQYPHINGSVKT
Outline: as §1

FGFR3 = FGFR3 (Homo sapiens (Human), UniProt P22607); test: FGFR enzymatic assay (FRET peptide phosphorylation), FGFR3; settings: FGFR3 enzyme (Millipore), ATP 140 μM
Chain of FGFR3 (P22607 23-806): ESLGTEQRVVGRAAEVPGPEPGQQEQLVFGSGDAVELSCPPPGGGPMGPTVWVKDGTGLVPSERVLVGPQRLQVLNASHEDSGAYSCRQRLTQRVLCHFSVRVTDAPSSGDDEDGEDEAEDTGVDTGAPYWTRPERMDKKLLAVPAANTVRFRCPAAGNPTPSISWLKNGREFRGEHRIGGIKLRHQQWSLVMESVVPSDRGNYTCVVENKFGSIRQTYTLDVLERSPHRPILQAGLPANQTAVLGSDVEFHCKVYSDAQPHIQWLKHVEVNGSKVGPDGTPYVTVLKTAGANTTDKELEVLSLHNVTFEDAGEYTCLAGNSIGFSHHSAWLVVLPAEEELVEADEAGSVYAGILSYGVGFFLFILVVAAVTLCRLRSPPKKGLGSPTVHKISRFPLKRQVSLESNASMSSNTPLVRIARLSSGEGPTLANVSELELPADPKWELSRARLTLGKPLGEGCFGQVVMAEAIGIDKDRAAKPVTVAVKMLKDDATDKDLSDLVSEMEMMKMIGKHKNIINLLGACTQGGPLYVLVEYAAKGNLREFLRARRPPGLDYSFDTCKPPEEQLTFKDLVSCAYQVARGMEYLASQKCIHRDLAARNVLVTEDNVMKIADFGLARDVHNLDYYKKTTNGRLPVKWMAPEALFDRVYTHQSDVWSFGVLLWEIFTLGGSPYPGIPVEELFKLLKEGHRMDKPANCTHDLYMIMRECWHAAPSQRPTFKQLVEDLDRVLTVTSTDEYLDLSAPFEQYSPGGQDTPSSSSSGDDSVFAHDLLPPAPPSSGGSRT
Outline: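 FRET assay of peptide phosphorylation by FGFR3 in HEPES pH 7.5 buffer with MgCl2, EGTA, Tween-20 and DTT. Enzyme was pre-incubated 5-10 min with compound, and the reaction ran 1 hr at 25° C. IC50 came from a variable-slope sigmoidal fit.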

Measured: IC50

Chain of FGFR1 (P11362 22-822): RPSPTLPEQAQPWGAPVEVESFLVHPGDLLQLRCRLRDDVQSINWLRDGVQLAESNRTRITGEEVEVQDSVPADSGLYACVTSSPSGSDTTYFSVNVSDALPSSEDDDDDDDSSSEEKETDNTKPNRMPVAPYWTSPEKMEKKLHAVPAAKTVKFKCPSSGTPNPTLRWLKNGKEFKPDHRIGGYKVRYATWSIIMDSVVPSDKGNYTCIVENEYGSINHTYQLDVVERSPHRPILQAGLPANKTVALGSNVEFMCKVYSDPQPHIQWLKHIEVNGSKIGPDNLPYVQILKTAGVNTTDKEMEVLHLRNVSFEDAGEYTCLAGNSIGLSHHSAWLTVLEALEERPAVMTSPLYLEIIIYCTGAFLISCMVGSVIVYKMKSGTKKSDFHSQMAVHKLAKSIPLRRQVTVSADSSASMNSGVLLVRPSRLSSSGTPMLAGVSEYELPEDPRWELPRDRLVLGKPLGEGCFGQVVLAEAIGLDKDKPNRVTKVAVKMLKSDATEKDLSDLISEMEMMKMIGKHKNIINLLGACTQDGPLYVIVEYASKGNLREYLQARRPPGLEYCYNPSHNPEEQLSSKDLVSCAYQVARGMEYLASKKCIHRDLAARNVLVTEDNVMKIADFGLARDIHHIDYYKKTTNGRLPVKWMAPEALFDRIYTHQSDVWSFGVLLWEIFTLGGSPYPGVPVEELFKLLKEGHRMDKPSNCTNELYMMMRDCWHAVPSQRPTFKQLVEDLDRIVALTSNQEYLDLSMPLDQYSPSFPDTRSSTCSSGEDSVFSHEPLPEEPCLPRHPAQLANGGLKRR

COc1cc(OC)c(F)c(N2Cc3cnc4[nH]c(CN5CCOCC5)cc4c3N(c3ccncc3)C2=O)c1F [Example 194, 3-(2,6-difluoro-3,5-dimethoxyphenyl)-8-(morpholin-4-ylmethyl)-1-pyridin-4-yl-1,3,4,7-tetrahydro-2H-pyrrolo[3′,2′:5,6]pyrido[4,3-d]pyrimidin-2-one]
< 100 nM: all assays above

CCN1CCN(Cc2cc3c4c(cnc3[nH]2)CN(c2c(F)c(OC)cc(OC)c2F)C(=O)N4c2ccccc2F)CC1 [Example 181, 3-(2,6-difluoro-3,5-dimethoxyphenyl)-8-[(4-ethylpiperazin-1-yl)methyl]-1-(2-fluorophenyl)-1,3,4,7-tetrahydro-2H-pyrrolo[3′,2′:5,6]pyrido[4,3-d]pyrimidin-2-one]
< 100 nM: all assays above

COc1cc(OC)c(F)c(N2Cc3cnc4[nH]ccc4c3C3(CCC3)C2=O)c1F [Example 148, 7′-(2,6-difluoro-3,5-dimethoxyphenyl)-6′,7′-dihydrospiro[cyclobutane-1,9′-pyrrolo[2,3-c][2,7]naphthyridin]-8′(3′H)-one]
< 100 nM: all assays above

COc1cc(OC)c(Cl)c(N2Cc3cnc4[nH]ccc4c3N(c3cccnc3)C2=O)c1F [Example 108, 3-(2-chloro-6-fluoro-3,5-dimethoxyphenyl)-1-pyridin-3-yl-1,3,4,7-tetrahydro-2H-pyrrolo[3′,2′:5,6]pyrido[4,3-d]pyrimidin-2-one]
< 100 nM: all assays above

COc1cc(OC)c(F)c(N2Cc3cnc4[nH]ccc4c3C(C)(C)C2=O)c1F [Example 67, 7-(2,6-difluoro-3,5-dimethoxyphenyl)-9,9-dimethyl-3,6,7,9-tetrahydro-8H-pyrrolo[2,3-c]-2,7-naphthyridin-8-one]
< 100 nM: all assays above

COc1cc(OC)c(F)c(N2Cc3cnc4[nH]ncc4c3N(C3CC3)C2=O)c1F [Example 87, 1-cyclopropyl-3-(2,6-difluoro-3,5-dimethoxyphenyl)-1,3,4,7-tetrahydro-2H-pyrazolo[4′,3′:5,6]pyrido[4,3-d]pyrimidin-2-one]
< 100 nM: all assays above

COc1cc(OC)c(F)c(N2Cc3cnc4[nH]ncc4c3N(c3cccnc3)C2=O)c1F [Example 94, 3-(2,6-difluoro-3,5-dimethoxyphenyl)-1-pyridin-3-yl-1,3,4,7-tetrahydro-2H-pyrazolo[4′,3′:5,6]pyrido[4,3-d]pyrimidin-2-one]
< 100 nM: all assays above

CCN1CCN(CCc2cc3c4c(cnc3[nH]2)CN(c2c(F)c(OC)cc(OC)c2F)C(=O)N4c2ccccc2F)CC1 [Example 198, 3-(2,6-difluoro-3,5-dimethoxyphenyl)-1-(2-fluorophenyl)-8-[2-(4-ethylpiperazin-1-yl)ethyl]-1,3,4,7-tetrahydro-2H-pyrrolo[3′,2′:5,6]pyrido[4,3-d]pyrimidin-2-one]
< 100 nM: all assays above

CCN1CCN(Cc2cc3c4c(cnc3[nH]2)CN(c2c(F)c(OC)cc(OC)c2F)C(=O)N4c2ccc(F)cc2)CC1 [Example 191, 3-(2,6-difluoro-3,5-dimethoxyphenyl)-1-(4-fluorophenyl)-8-[(4-ethylpiperazin-1-yl)methyl]-1,3,4,7-tetrahydro-2H-pyrrolo[3′,2′:5,6]pyrido[4,3-d]pyrimidin-2-one]
< 100 nM: all assays above

COc1cc(OC)c(F)c(N2Cc3cnc4c(c3N(c3ccc(Cl)cc3)C2=O)CC(=O)N4)c1F [Example 80, 1-(4-chlorophenyl)-3-(2,6-difluoro-3,5-dimethoxyphenyl)-3,4,7,9-tetrahydro-1H-pyrrolo[3′,2′:5,6]pyrido[4,3-d]pyrimidine-2,8-dione]
< 100 nM: all assays above

CCN1CCN(CCc2cc3c4c(cnc3[nH]2)CN(c2c(F)c(OC)cc(OC)c2F)C(=O)N4c2cccc(F)c2F)CC1 [Example 224, 3-(2,6-difluoro-3,5-dimethoxyphenyl)-1-(2,3-difluorophenyl)-8-[2-(4-ethylpiperazin-1-yl)ethyl]-1,3,4,7-tetrahydro-2H-pyrrolo[3′,2′:5,6]pyrido[4,3-d]pyrimidin-2-one]
< 100 nM: all assays above

COc1cc(OC)c(F)c(N2Cc3cnc4[nH]nc(C#N)c4c3N(C)C2=O)c1F [Example 53, 3-(2,6-Difluoro-3,5-dimethoxyphenyl)-1-methyl-2-oxo-2,3,4,7-tetrahydro-1H-pyrazolo[4′,3′:5,6]pyrido[4,3-d]pyrimidine-9-carbonitrile]
< 100 nM: all assays above

COc1cc(OC)c(F)c(N2Cc3cnc4[nH]c(C(=O)NC5CC5)cc4c3N(C)C2=O)c1 [Example 27, N-Cyclopropyl-3-(2-fluoro-3,5-dimethoxyphenyl)-1-methyl-2-oxo-2,3,4,7-tetrahydro-1H-pyrrolo[3′,2′:5,6]pyrido[4,3-d]pyrimidine-8-carboxamide]
< 100 nM: all assays above

CCN1C(=O)N(c2c(F)c(OC)cc(OC)c2F)Cc2cnc3[nH]c(CCN4CC(F)C4)cc3c21 [Example 231, 3-(2,6-difluoro-3,5-dimethoxyphenyl)-1-ethyl-8-[2-(3-fluoroazetidin-1-yl)ethyl]-1,3,4,7-tetrahydro-2H-pyrrolo[3′,2′:5,6]pyrido[4,3-d]pyrimidin-2-one]
< 100 nM: all assays above

COc1cc(OC)c(Cl)c(N2Cc3cnc4[nH]c(-c5ccnn5C)cc4c3N(C)C2=O)c1 [Example 15, 3-(2-Chloro-3,5-dimethoxyphenyl)-1-methyl-8-(1-methyl-1H-pyrazol-5-yl)-1,3,4,7-tetrahydro-2H-pyrrolo[3′,2′:5,6]pyrido[4,3-d]pyrimidin-2-one]
< 100 nM: all assays above

COc1cc(OC)c(F)c(N2Cc3cnc4[nH]c(C(=O)N5CCCC(O)C5)cc4c3N(C)C2=O)c1 (stereo not drawn) [Example 31, 3-(2-Fluoro-3,5-dimethoxyphenyl)-8-[(3-hydroxypiperidin-1-yl)carbonyl]-1-methyl-1,3,4,7-tetrahydro-2H-pyrrolo[3′,2′:5,6]pyrido[4,3-d]pyrimidin-2-one]
< 100 nM: all assays above

COc1cc(OC)c(Cl)c(N2Cc3cnc4[nH]ncc4c3N(C3CCC3)C2=O)c1F [Example 102, 3-(2-chloro-6-fluoro-3,5-dimethoxyphenyl)-1-cyclobutyl-1,3,4,7-tetrahydro-2H-pyrazolo[4′,3′:5,6]pyrido[4,3-d]pyrimidin-2-one]
< 100 nM: all assays above

COc1cc(OC)cc(N2Cc3cnc4[nH]ccc4c3N(Cc3ccccc3)C2=O)c1 [Example 6, 1-Benzyl-3-(3,5-dimethoxyphenyl)-1,3,4,7-tetrahydro-2H-pyrrolo[3′,2′:5,6]pyrido[4,3-d]pyrimidin-2-one]
< 100 nM: all assays above

COc1cc(OC)c(F)c(N2Cc3cnc4[nH]ncc4c3N(Cc3cocn3)C2=O)c1F [Example 161, 3-(2,6-Difluoro-3,5-dimethoxyphenyl)-1-(1,3-oxazol-4-ylmethyl)-1,3,4,7-tetrahydro-2H-pyrazolo[4′,3′:5,6]pyrido[4,3-d]pyrimidin-2-one]
< 100 nM: all assays above

CCN1CCN(Cc2cc3c4c(cnc3[nH]2)CN(c2c(F)c(OC)cc(OC)c2F)C(=O)N4c2cnn(C)c2)CC1 [Example 205, 3-(2,6-difluoro-3,5-dimethoxyphenyl)-8-[(4-ethylpiperazin-1-yl)methyl]-1-(1-methyl-1H-pyrazol-4-yl)-1,3,4,7-tetrahydro-2H-pyrrolo[3′,2′:5,6]pyrido[4,3-d]pyrimidin-2-one]
< 100 nM: all assays above

COc1cc(OC)cc(N2Cc3cnc4[nH]ccc4c3N(C3CC3)C2=O)c1 [Example 4, 1-Cyclopropyl-3-(3,5-dimethoxyphenyl)-1,3,4,7-tetrahydro-2H-pyrrolo[3′,2′:5,6]pyrido[4,3-d]pyrimidin-2-one]
< 100 nM: all assays above

COc1cc(OC)c(F)c(N2Cc3cnc4[nH]c(C(=O)N5C[C@@H](C)N[C@@H](C)C5)cc4c3N(C)C2=O)c1F [Example 120, 3-(2,6-difluoro-3,5-dimethoxyphenyl)-8-{[(3R,5S)-3,5-dimethylpiperazin-1-yl]carbonyl}-1-methyl-1,3,4,7-tetrahydro-2H-pyrrolo[3′,2′:5,6]pyrido[4,3-d]pyrimidin-2-one]
< 100 nM: all assays above

CCN1C(=O)N(c2c(F)c(OC)cc(OC)c2F)Cc2cnc3[nH]ccc3c21 [Example 121, 3-(2,6-Difluoro-3,5-dimethoxyphenyl)-1-ethyl-1,3,4,7-tetrahydro-2H-pyrrolo[3′,2′:5,6]pyrido[4,3-d]pyrimidin-2-one]
< 100 nM: all assays above

COc1cc(OC)c(F)c(N2Cc3cnc4[nH]c(CN5CCOCC5)cc4c3C(C)(C)C2=O)c1F [Example 152, 7-(2,6-difluoro-3,5-dimethoxyphenyl)-9,9-dimethyl-2-(morpholin-4-ylmethyl)-3,6,7,9-tetrahydro-8H-pyrrolo[2,3-c]-2,7-naphthyridin-8-one]
< 100 nM: all assays above
